Laboratory results as given in PubChem BioAssay AID328 (DTP/NCI, 2004).
Where “and” joins values, the source holds several entries; their conditions need not be identical. Identical values can stand only once. Inconclusive results and toxic doses are left out.

Tested on: BDF1 mice, P388 leukemia ip, median survival T/C
Assay: NCI In Vivo Anticancer Drug Screen. Data for tumor model P388 Leukemia (intraperitoneal) in B6D2F1 (BDF1) mice
Settings: endpoint: median survival time, higher = longer survival
How it was run: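 Vehicle-dosed animals serve as the reference; survival of compound-dosed, tumour-implanted mice is divided by it.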

[1] = dose: 12.5 mg/kg/injection, schedule: Q04DX003 (ip), vehicle: saline with Tween-80
[2] = dose: 25.0 mg/kg/injection, schedule: Q04DX003 (ip), vehicle: saline with Tween-80
[3] = dose: 50.0 mg/kg/injection, schedule: Q04DX003 (ip), vehicle: saline with Tween-80
[4] = dose: 100.0 mg/kg/injection, schedule: Q04DX003 (ip), vehicle: saline with Tween-80
[5] = dose: 200.0 mg/kg/injection, schedule: Q04DX003 (ip), vehicle: saline with Tween-80
[6] = dose: 50.0 mg/kg/injection, schedule: Q01DX009 (ip), vehicle: saline with Tween-80
[7] = dose: 100.0 mg/kg/injection, schedule: Q01DX009 (ip), vehicle: Klucel (hydroxypropylcellulose) (HPC)
[8] = dose: 100.0 mg/kg/injection, schedule: Q04DX003 (ip), vehicle: Klucel (hydroxypropylcellulose) (HPC)
[9] = dose: 200.0 mg/kg/injection, schedule: Q01DX009 (ip), vehicle: Klucel (hydroxypropylcellulose) (HPC)
[10] = dose: 200.0 mg/kg/injection, schedule: Q04DX003 (ip), vehicle: Klucel (hydroxypropylcellulose) (HPC)
[11] = dose: 400.0 mg/kg/injection, schedule: Q04DX003 (ip), vehicle: Klucel (hydroxypropylcellulose) (HPC)
[12] = dose: 50.0 mg/kg/injection, schedule: Q01DX009 (ip), vehicle: Klucel (hydroxypropylcellulose) (HPC)
[13] = dose: 50.0 mg/kg/injection, schedule: Q04DX003 (ip), vehicle: Klucel (hydroxypropylcellulose) (HPC)
[14] = dose: 150.0 mg/kg/injection, schedule: Q01DX009 (ip), vehicle: Klucel (hydroxypropylcellulose) (HPC)
[15] = dose: 100.0 mg/kg/injection, schedule: Q01DX009 (ip), vehicle: saline with Tween-80

## CC1=C(C)Cc2c(c(OC(=O)c3ccccc3)cc(Cl)c2OC(=O)c2ccccc2)C1
[1]
  T/C: 94 % of control
[2]
  T/C: 94 % of control
[3]
  T/C: 92 % of control
[4]
  T/C: 90 % of control
[5]
  T/C: 93 % of control
dose: 400.0 mg/kg/injection, schedule: Q04DX003 (ip), vehicle: saline with Tween-80
  T/C: 94 % of control

## CC1(C)N=C(N)N=C(N)N1c1cccc(Cl)c1
dose: 1.9 mg/kg/injection, schedule: Q04DX003 (ip), vehicle: saline
  T/C: 104 % of control
dose: 2.9 mg/kg/injection, schedule: Q04DX003 (ip), vehicle: saline
  T/C: 100 % of control
dose: 10.0 mg/kg/injection, schedule: Q04DX003 (ip), vehicle: saline
  T/C: 113 % of control
dose: 18.0 mg/kg/injection, schedule: Q01DX009 (ip), vehicle: saline
  T/C: 195 % of control
dose: 18.7 mg/kg/injection, schedule: Q01DX009 (ip), vehicle: saline
  T/C: 168 % of control
dose: 28.0 mg/kg/injection, schedule: Q01DX009 (ip), vehicle: saline
  T/C: 160 % of control and 209 % of control
dose: 37.5 mg/kg/injection, schedule: Q04DX003 (ip), vehicle: saline
  T/C: 175 % of control and 177 % of control
dose: 40.0 mg/kg/injection, schedule: Q01DX009 (ip), vehicle: saline
  T/C: 95 % of control
dose: 42.0 mg/kg/injection, schedule: Q01DX009 (ip), vehicle: saline
  T/C: 213 % of control
dose: 56.25 mg/kg/injection, schedule: Q04DX003 (ip), vehicle: saline
  T/C: 150 % of control

## O=N[O-].O=N[O-].O=N[O-].[Co+3].[NH-]CC[N-]CC[NH-]
[6]
  T/C: 111 % of control

## CCOC(=O)C1CCC(C(=O)OCC)N1c1ccc(C=O)cc1 (stereo unspecified)
[7]
  T/C: 122 % of control
[8]
  T/C: 105 % of control
[9]
  T/C: 105 % of control
[10]
  T/C: 100 % of control
dose: 400.0 mg/kg/injection, schedule: Q01DX009 (ip), vehicle: Klucel (hydroxypropylcellulose) (HPC)
  T/C: 122 % of control
[11]
  T/C: 100 % of control

## CN(C)CCC=C1c2ccccc2-c2ccccc21
dose: 12.5 mg/kg/injection, schedule: Q04DX003 (ip), vehicle: saline
  T/C: 100 % of control
dose: 25.0 mg/kg/injection, schedule: Q01DX009 (ip), vehicle: saline
  T/C: 115 % of control
dose: 25.0 mg/kg/injection, schedule: Q04DX003 (ip), vehicle: saline
  T/C: 90 % of control
dose: 50.0 mg/kg/injection, schedule: Q01DX009 (ip), vehicle: saline
  T/C: 109 % of control and 120 % of control
dose: 50.0 mg/kg/injection, schedule: Q04DX003 (ip), vehicle: saline
  T/C: 100 % of control
dose: 75.0 mg/kg/injection, schedule: Q04DX003 (ip), vehicle: saline
  T/C: 113 % of control
dose: 100.0 mg/kg/injection, schedule: Q01DX009 (ip), vehicle: saline
  T/C: 113 % of control
dose: 115.0 mg/kg/injection, schedule: Q04DX003 (ip), vehicle: saline
  T/C: 95 % of control

## C#CCOC(=O)Nc1ccccc1Cl
[12]
  T/C: 110 % of control
[13]
  T/C: 100 % of control
[7]
  T/C: 100 % of control
[8]
  T/C: 109 % of control
[9]
  T/C: 100 % of control
[10]
  T/C: 109 % of control

## COc1cc2c(cc1OC)-c1c3c(cc4c1[C@H](C2)N(C)CC4)OCO3
dose: 37.5 mg/kg/injection, schedule: Q01DX009 (ip), vehicle: Klucel (hydroxypropylcellulose) (HPC)
  T/C: 97 % of control
dose: 75.0 mg/kg/injection, schedule: Q01DX009 (ip), vehicle: Klucel (hydroxypropylcellulose) (HPC)
  T/C: 98 % of control
[14]
  T/C: 98 % of control

## CCCCCC[N+]1(C)CC2C3C=CC(C3)C2C1 (stereo unspecified)
dose: 75.0 mg/kg/injection, schedule: Q01DX009 (ip), vehicle: saline
  T/C: 90 % of control

## CC(=N\O)/C(C)=N/O.CC(=N\O)/C(C)=N/O.O.[CH3-].[Co]
dose: 6.25 mg/kg/injection, schedule: Q01DX009 (ip), vehicle: saline
  T/C: 100 % of control
dose: 12.5 mg/kg/injection, schedule: Q01DX009 (ip), vehicle: saline
  T/C: 97 % of control

## COc1ccc(Cl)cc1NC(=O)NNC(=O)C(=O)Nc1ccc(F)cc1
dose: 50.0 mg/kg/injection, schedule: Q01DX005 (ip), vehicle: saline with Tween-80
  T/C: 91 % of control
dose: 100.0 mg/kg/injection, schedule: Q01DX005 (ip), vehicle: saline with Tween-80
  T/C: 91 % of control
dose: 200.0 mg/kg/injection, schedule: Q01DX005 (ip), vehicle: saline with Tween-80
  T/C: 100 % of control

## O=[N+]([O-])c1ccc(C2OC2c2ccccc2)cc1 (stereo unspecified)
[12]
  T/C: 122 % of control
[7]
  T/C: 111 % of control
[8]
  T/C: 95 % of control and 120 % of control
[9]
  T/C: 111 % of control
[10]
  T/C: 110 % of control
[11]
  T/C: 91 % of control and 110 % of control

## C[N+](C)(CC(=O)Nc1ccc(Cl)cc1)CC(=O)c1ccc(Cl)c(Cl)c1
dose: 100.0 mg/kg/injection, schedule: Q01DX001 (ip), vehicle: saline sonified
  T/C: 104 % of control
dose: 200.0 mg/kg/injection, schedule: Q01DX001 (ip), vehicle: saline sonified
  T/C: 95 % of control
dose: 400.0 mg/kg/injection, schedule: Q01DX001 (ip), vehicle: saline sonified
  T/C: 100 % of control

## CC(Sc1ncnc2nc[nH]c12)c1ccccc1 (stereo unspecified)
[13]
  T/C: 100 % of control
[8]
  T/C: 100 % of control
[10]
  T/C: 110 % of control

## Nc1cc(N)cc(Cc2ccccc2)c1
[12]
  T/C: 112 % of control
[7]
  T/C: 116 % of control
[9]
  T/C: 116 % of control

## O=[N+]([O-])c1ccc([N+](=O)[O-])c(Cl)c1
[1]
  T/C: 90 % of control
dose: 25.0 mg/kg/injection, schedule: Q01DX009 (ip), vehicle: Klucel (hydroxypropylcellulose) (HPC)
  T/C: 100 % of control
[2]
  T/C: 109 % of control
[12]
  T/C: 109 % of control
[3]
  T/C: 109 % of control
[7]
  T/C: 118 % of control
[8]
  T/C: 109 % of control
[14]
  T/C: 118 % of control

## C[C@]12CCC(=O)C=C1CC[C@@H]1[C@@H]2[C@@H](O)C[C@@]2(C)[C@H]1CC[C@]2(C)O
[15]
  T/C: 86 % of control

## C=C1C(=O)OC2/C=C(\C)CC(O)/C=C(/C)CC(OC(=O)C(O)(CO)C(C)S)C12 (stereo unspecified)
dose: 100.0 mg/kg/injection, schedule: Q04DX002 (ip), vehicle: Klucel (hydroxypropylcellulose) (HPC)
  T/C: 120 % of control
dose: 200.0 mg/kg/injection, schedule: Q04DX002 (ip), vehicle: Klucel (hydroxypropylcellulose) (HPC)
  T/C: 118 % of control

## CCOC(=O)CNCc1ccc(Cl)c(Cl)c1
dose: 50.0 mg/kg/injection, schedule: Q04DX003 (ip), vehicle: water
  T/C: 111 % of control
dose: 100.0 mg/kg/injection, schedule: Q04DX003 (ip), vehicle: water
  T/C: 113 % of control
dose: 200.0 mg/kg/injection, schedule: Q04DX003 (ip), vehicle: water
  T/C: 111 % of control

## CCCCCCCCCCCCCCCCCC(=O)NN
[1]
  T/C: 105 % of control
[2]
  T/C: 98 % of control
[3]
  T/C: 98 % of control

## CC1(C)SC(=S)N(c2ccc([N+](=O)[O-])cc2)C1=O
dose: 75.0 mg/kg/injection, schedule: Q01DX009 (ip), vehicle: saline with Tween-80
  T/C: 115 % of control
dose: 150.0 mg/kg/injection, schedule: Q01DX009 (ip), vehicle: saline with Tween-80
  T/C: 113 % of control
dose: 300.0 mg/kg/injection, schedule: Q01DX009 (ip), vehicle: saline with Tween-80
  T/C: 96 % of control

## CC1=CC(=O)[C@@H](O)[C@]2(C)[C@H]3[C@@]4(O)OC[C@]35[C@H]([C@@H](C)[C@H]4O)[C@@H](OC(=O)c3ccccc3)C(=O)O[C@@H]5C[C@@H]12
dose: 0.03 mg/kg/injection, schedule: Q01DX009 (ip), vehicle: saline with Tween-80
  T/C: 121 % of control
dose: 0.06 mg/kg/injection, schedule: Q01DX009 (ip), vehicle: saline with Tween-80
  T/C: 118 % of control
dose: 0.12 mg/kg/injection, schedule: Q01DX009 (ip), vehicle: saline with Tween-80
  T/C: 122 % of control

## COC(=O)CCC1([N+](=O)[O-])CCCCC1
dose: 25.0 mg/kg/injection, schedule: Q01DX009 (ip), vehicle: saline with Tween-80
  T/C: 87 % of control
[2]
  T/C: 92 % of control
[6]
  T/C: 95 % of control
[3]
  T/C: 92 % of control
[15]
  T/C: 95 % of control
[4]
  T/C: 88 % of control

## COc1cc(/C=N\NC(C)=O)cc(OC)c1OC
[3]
  T/C: 100 % of control
[4]
  T/C: 90 % of control
[5]
  T/C: 90 % of control

## O=C(NC1CCCCC1)N(C(=O)C(F)(F)F)C1CCCCC1
[6]
  T/C: 97 % of control
[15]
  T/C: 93 % of control
dose: 200.0 mg/kg/injection, schedule: Q01DX009 (ip), vehicle: saline with Tween-80
  T/C: 93 % of control
